Article PMC4509514, “Saccharomyces cerevisiae Ski7 Is a GTP-Binding Protein Adopting the Characteristic Conformation of Active Translational GTPases” (Structure(London, England:1993), 2015)

Target: T1, Ski7C (Saccharomyces cerevisiae, UniProt Q08491)
T1 construct: gene SKI7; C-terminal GTPase-like region, residues 254-747; N-terminal thioredoxin tag cut with PreScission; expressed in E. coli BL21; one molecule per asymmetric unit (SeMet form for phasing)
T1 sequence (Q08491 254-747): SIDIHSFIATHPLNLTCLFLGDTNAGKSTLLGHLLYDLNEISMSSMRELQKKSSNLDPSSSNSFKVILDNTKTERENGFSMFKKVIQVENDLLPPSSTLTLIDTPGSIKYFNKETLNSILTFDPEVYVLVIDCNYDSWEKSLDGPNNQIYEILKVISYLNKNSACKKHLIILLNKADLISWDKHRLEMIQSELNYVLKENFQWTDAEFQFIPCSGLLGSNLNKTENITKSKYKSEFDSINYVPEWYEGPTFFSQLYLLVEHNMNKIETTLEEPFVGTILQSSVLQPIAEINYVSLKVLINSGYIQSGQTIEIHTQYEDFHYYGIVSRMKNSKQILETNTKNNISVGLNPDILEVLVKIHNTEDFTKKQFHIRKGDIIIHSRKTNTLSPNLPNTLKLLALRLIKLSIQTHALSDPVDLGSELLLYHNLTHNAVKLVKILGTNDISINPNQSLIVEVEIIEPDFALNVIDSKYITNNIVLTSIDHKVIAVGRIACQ
Experiment: thermal shift (Thermofluor)
Assay type: binding
Conditions: nucleotide analog added during alkaline phosphatase treatment; nucleotide-free protein as reference

| SMILES | Tm [°C] |
| --- | --- |
| Nc1nc2c(ncn2[C@@H]2O[C@H](COP(=O)(O)CP(=O)(O)O)[C@@H](O)[C@H]2O)c(=O)[nH]1 [GMPCP] | 44.0 |
| Nc1nc2c(ncn2[C@@H]2O[C@H](COP(=O)(O)OP(=O)(O)NP(=O)(O)O)[C@@H](O)[C@H]2O)c(=O)[nH]1 [GMPPNP] | 47.6 |
